According to patent publication US20190233522A1, “NEW DOSAGE REGIMENS FOR ANTIBODY DRUG CONJUGATES BASED ON ANTI-AXL ANTIBODIES” (GENMAB A/S, priority 2016, published 2019):

Experiments:
LU1868 = assay: Erlotinib-resistant NSCLC PDX model LU1868; type: in vivo, BALB/c nude mice
Protocol: (§1) Inoculation of tumor fragments into BALB/c nude mice and randomization was performed as described above.
Erlotinib was given daily for 14 days at a dose of 50 mg/kg. Treatments with erlotinib alone, IgG1-b12-vcMMAE or IgG1-b12 were included as controls (FIG. 27).

LXFA 677 = assay: NSCLC PDX model LXFA 677; type: in vivo, NMRI nu/nu mice
Protocol: (§2) Inoculation of tumor fragments into 4-6 weeks old male NMRI nu/nu mice and randomization was performed as described above.
(§3) Erlotinib was given daily for 14 days at a dose of 50 mg/kg. Erlotinib alone, IgG1-b12-vcMMAE and IgG1-b12 were used as controls.

LXFA 677_3 = assay: NSCLC PDX model LXFA 677_3 (acquired resistance to erlotinib); type: in vivo, NMRI nu/nu mice
Protocol: as §2, §3

LU2511 tumors = assay: Erlotinib-resistant NSCLC PDX model LU2511; type: in vivo, BALB/c nude mice
Protocol: Tumor fragments from donor mice bearing patient-derived NSCLC xenografts (LU2511) were used for inoculation into BALB/c nude mice. Each mouse was inoculated subcutaneously at the right flank with one tumor fragment (2-3 mm in diameter) and tumors were allowed to grow until the tumor volume was about 200 mm^3. […] The antibodies and ADCs were dosed intravenously (i.v.) at 4 mg/kg on the day of randomization (day 0) and on day 7. Erlotinib was dosed orally (per os) at 50 mg/kg daily for 2 weeks. Tumor volumes (mm^3) were monitored twice weekly and were calculated from caliper (PLEXX) measurements as: 0.5×(length)×(width)^2.

LXFA 526 = assay: Erlotinib-resistant NSCLC PDX model LXFA 526; type: in vivo, NMRI nu/nu mice
Protocol: as §2
Erlotinib was given daily for 14 days at a dose of 50 mg/kg. Erlotinib alone, IgG1-b12-vcMMAE and IgG1-b12 were used as control.

LU0858 = assay: Erlotinib-resistant NSCLC PDX model LU0858; type: in vivo, BALB/c nude mice
Protocol: as §1, §3

ES0195 tumors = assay: Esophageal cancer PDX model ES0195; type: in vivo, BALB/c nude mice
Protocol: Tumor fragments from donor mice bearing patient-derived esophageal xenografts (ES0195) were used for inoculation into BALB/c nude mice. Each mouse was inoculated subcutaneously at the right flank with one tumor fragment (2-3 mm in diameter) and tumors were allowed to grow until the tumor volume was about 150 mm^3. […] The antibodies and ADCs were dosed intravenously (i.v.) at 4 mg/kg at day of randomization (day 0) and day 7. Paclitaxel was dosed intra-peritoneally (i.p.) at 20 mg/kg at day 0, 7, and 14. Tumor volumes (mm^3) were monitored twice weekly and were calculated from caliper (PLEXX) measurements as: 0.52×(length)×(width)^2.

CV1664 = assay: Cervical cancer PDX model CV1664; type: in vivo, BALB/c nude mice
Protocol: Inoculation of tumor fragments into BALB/c nude mice and randomization was performed as described in Example 23.

MDA-MB231 cells = assay: Cytotoxicity assay (CellTiter-Glo) in MDA-MB231 cells; type: cell-based; settings: MDA-MB231 (n = 2), 5 days incubation
Protocol: (§4) LCLC-103H cells (human large cell lung cancer) and A431 cells (DMSZ, Braunschweig, Germany) were cultured in RPMI 1640 with L-Glutamine (Cambrex; cat.no. BE12-115F) supplemented with 10% (vol/vol) heat inactivated Cosmic Calf Serum (Perbio; cat.no. SH30087.03), 2 mM L-glutamine (Cambrex; cat.no. US17-905C), 50 IU/mL penicillin, and 50 µg/mL streptomycin (Cambrex; cat.no. DE17-603E). MDA-MB231 cells were cultured in DMEM with high glucose and HEPES (Lonza #BE12-709F), Donor Bovine Serum with Iron (Life Technologies #10371-029), 2 mM L-glutamine (Lonza #BE17 -605E), 1 mM Sodium Pyruvate (Lonza #BE13-115E), and MEM Non-Essential Amino Acids Solution (Life Technologies #11140). The cell lines were maintained at 37° C. in a 5% (vol/vol) CO2 humidified incubator. LCLC-103H, A431 and MDA-MB231 cells were cultured to near confluency, after which cells were trypsinized, resuspended in culture medium and passed through a cell strainer (BD Falcon, cat.no. 352340) to obtain a single cell suspension. […]
(§5) Subsequently, 180 μL per well was transferred to white 96-well Optiplate™ plates (PerkinElmer, Waltham, Mass.; cat.no. 6005299), which were incubated for 30 min at room temperature. Finally, luminescence was measured on an EnVision multiplate reader (Envision, Perkin Elmer).

A431 tumors = assay: A431 xenograft model (high Gas6); type: in vivo; settings: 3 mg/kg i.p., SCID mice
Protocol: (§6) Tumor induction was performed by subcutaneous injection of 5×10^6 A431 or LCLC-103H tumor cells (both obtained from Leibniz-Institut—Deutsche Sammlung von Mikroorganismen and Zellkulturen GmbH (DSMZ)) in 200 μL PBS in the right flank of female SCID mice. Treatment was started 14-21 days after tumor cell inoculation, when the average tumor size was >100-200 mm^3 and distinct tumor growth was observed. Mice received a single injection or a total of 4 biweekly intraperitoneal injections with IgG1-AXL-vcMMAE ADCs or control antibody (unconjugated IgG1-b12), as indicated. Tumor volume was determined at least two times per week. Tumor volumes (mm^3) were calculated from caliper (PLEXX) measurements as: 0.52×(length)×(width)^2.

LCLC-103H cells = assay: Cytotoxicity assay (CellTiter-Glo) in LCLC-103H cells; type: cell-based, human; settings: 5 days incubation
Protocol: as §4, §5

LCLC-103H tumors = assay: LCLC-103H xenograft model (low Gas6, Example 5); type: in vivo; settings: 1 mg/kg i.p., SCID mice
Protocol: as §6

PAXF1657 tumors = assay: PAXF1657 pancreas cancer PDX model; type: in vivo, NMRI nu/nu mice
Protocol: Human pancreas tumor tissue was subcutaneously implanted in the left flank of 5-7 weeks old female NMRI nu/nu mice. […] At day of randomization (day 0), the 3 ADCs were dosed intravenously (i.v.) at either 4 mg/kg or 2 mg/kg, and the control group received a single dose of IgG1-b12 (4 mg/kg). Tumor volumes (mm^3) were monitored twice weekly and were calculated from caliper (PLEXX) measurements as: 0.52×(length)×(width)^2.

A431 cells = assay: Cytotoxicity assay (CellTiter-Glo) in A431 cells; type: cell-based; settings: A431 (n = 3), 5 days incubation
Protocol: as §4, §5

[1] = system: LCLC-103H xenograft tumors; assay: Therapeutic treatment of SC LCLC-103H tumor xenografts (Example 3); type: in vivo, SCID mice
Protocol: The in vivo efficacy of MMAE-conjugated anti-AXL antibodies was determined in established subcutaneous (SC) LCLC-103H xenograft tumors in SCID mice. 5×10^6 LCLC-103H (large cell lung carcinoma) tumor cells (obtained from Leibniz-Institut DSMZ-Deutsche Sammlung von Mikroorganismen and Zellkulturen GmbH (DSMZ)) in 200 μL PBS were injected subcutaneously in the right flank of female SCID mice. Starting 14-21 days after tumor cell inoculation, when the average tumor size was >100-200 mm^3 and distinct tumor growth was observed, a single injection with 1 mg/kg (20 μg/mouse) IgG1-AXL-vcMMAE antibodies or control (unconjugated IgG1-b12) was given intraperitoneally (100 μL/mouse). Tumor volume was determined at least two times per week. Tumor volumes (mm^3) were calculated from caliper (PLEXX) measurements as: 0.52×(length)×(width)^2.

[2] = 2 doses of 4 mg/kg on days 55 and 62

C#Cc1cccc(Nc2ncnc3cc(OCCOC)c(OCCOC)cc23)c1 [erlotinib, reference compound]
effect on tumor growth, LU1868 (LU1868; 50 mg/kg daily for 14 days): no effect on tumor growth | effect on tumor growth, LXFA 677 (LXFA 677; 50 mg/kg daily for 14 days): induced partial tumor regression | effect on tumor growth, LXFA 677_3 (LXFA 677_3; 50 mg/kg daily for 14 days): no effect on tumor growth | anti-tumor activity on LU2511 tumors (LU2511 tumors; 50 mg/kg per os daily for 2 weeks): did not induce anti-tumor activity | effect on tumor growth, LXFA 526 (LXFA 526; 50 mg/kg daily for 14 days): no effect on tumor growth | effect on tumor growth, LU0858 (LU0858; 50 mg/kg daily for 14 days): no effect on tumor growth

CC(=O)O[C@H]1C(=O)[C@@]2(C)[C@H]([C@H](OC(=O)c3ccccc3)[C@]3(O)C[C@H](OC(=O)[C@H](O)[C@@H](NC(=O)c4ccccc4)c4ccccc4)C(C)=C1C3(C)C)[C@]1(OC(C)=O)CO[C@@H]1C[C@@H]2O [paclitaxel, reference compound]
anti-tumor activity on ES0195 tumors (ES0195 tumors; 20 mg/kg i.p. day 0, 7 and 14): tumor growth inhibition | effect on tumor growth, CV1664 (CV1664; 20 mg/kg intraperitoneally day 0 and 7): induced partial tumor regression

IgG1-AXL-107
effect on tumor growth compared to IgG1-b12 control group, CV1664 (CV1664; 4 mg/kg day 0 and 7): only induced minor inhibition of tumor growth

IgG1-AXL-107-vcMMAE: anti-AXL antibody 107 (VH SEQ ID No 1, VL SEQ ID No 2) conjugated to MMAE via vc linker
anti-tumor activity on ES0195 tumors (ES0195 tumors; 4 mg/kg i.v. day 0 and day 7): induced tumor regression | EC50 Mean (MDA-MB231 cells): 0.037 µg/mL | effect on tumor growth, LU1868 (LU1868; 2 mg/kg and 4 mg/kg, day 0 and 7, alone): induced tumor growth inhibition | effect on tumor growth, LXFA 677 (LXFA 677; 2 mg/kg day 0 and 7): induced tumor growth inhibition | effect on tumor growth, LXFA 677 (LXFA 677; 4 mg/kg day 0 and 7): induced partial tumor regression | anti-tumor activity on A431 tumors (A431 tumors): induced growth inhibition | EC50 (LCLC-103H cells): 0.022 µg/mL | anti-tumor activity on LCLC-103H tumors (LCLC-103H tumors): induced regression | effect on tumor growth, LXFA 677_3 (LXFA 677_3; both dose levels (2 and 4 mg/kg), day 0 and 7, lasted at least until day 41): induced complete tumor regression | growth of PAXF1657 tumors compared to the control group (PAXF1657 tumors; 2 mg/kg i.v., day 0): significantly reduced the growth | anti-tumor activity on PAXF1657 tumors (PAXF1657 tumors; 4 mg/kg i.v., day 0): induced tumor regression | average tumor size versus isotype control IgG1-b12 (PAXF1657 tumors; day 14, 2 mg/kg or 4 mg/kg, p<0.001 Tukey's multiple comparison test): significantly smaller | EC50 Mean (A431 cells): 0.154 µg/mL | complete tumor reduction ([1]; 1 mg/kg single i.p.): in some mice within these groups to complete tumor reduction | tumor volume versus control IgG1-b12 ([1]; day 30, One Way ANOVA (Dunnett's), 1 mg/kg single i.p.): highly significant difference | anti-tumor activity in established SC LCLC-103H tumors ([1]; single i.p. injection 1 mg/kg, SCID mice): induced tumor regression | anti-tumor activity on LU2511 tumors (LU2511 tumors; 4 mg/kg i.v. day 0 and day 7): induced tumor growth inhibition | effect on tumor growth, LXFA 526 (LXFA 526; 2 mg/kg day 0 and 7): induced tumor growth inhibition | effect on tumor growth, LXFA 526 (LXFA 526; 4 mg/kg day 0 and 7): complete tumor regression in all mice at least until day 76 | effect on tumor growth, LU0858 (LU0858; 2 mg/kg day 0 and 7, alone): no effect on tumor growth | effect on tumor growth, LU0858 (LU0858; 4 mg/kg day 0 and 7, alone, compared to IgG1-b12-vcMMAE control): induced tumor growth inhibition | retreatment of three mice with tumor regrowth after paclitaxel, CV1664 (CV1664; [2]): Two of the three mice showed complete tumor regression | retreatment of two mice with tumor regrowth after initial 4 mg/kg ADC, CV1664 (CV1664; [2]): partial tumor regression in both mice | second retreatment of the one mouse with regrowth after paclitaxel and ADC, CV1664 (CV1664; 2 doses of 4 mg/kg on days 98 and 105): partial tumor regression | second retreatment of the same two mice, CV1664 (CV1664; 2 doses of 4 mg/kg on days 105 and 112): partial tumor regression in both animals | effect on tumor growth, CV1664 (CV1664; both dose levels (2 or 4 mg/kg), day 0 and 7, lasted at least until day 49): induced strong tumor regression
